Test [1] is described as follows: Effect on tissue-toxic hypoxia (survival time after KCN i.p.), life-prolonging rate (1). The settings on record: Mus musculus, po, 100 mg/kg oral, 1 hour before KCN 10 mg/kg i.p.; untreated group 140 seconds; read-out: Life-prolonging rate (1): increase percent of survival time. The class given is in vivo, male mice (dd-strain).
Test [2] can be described thus: Effect on hypotonic hypoxia (survival time in nitrogen gas containing 1.5 % oxygen), life-prolonging rate (2). The class given is in vivo, male mice (dd-strain). As to conditions: Mus musculus, po, 100 mg/kg oral, 1 hour before 1.5 % oxygen in nitrogen; untreated group 8 minutes; read-out: Life-prolonging rate (2): increase percent of survival time. The protocol:
b. Effect on hyptonic hypoxia
To male mice (dd-strain) weighting 15 to 22 g were administered orally the present compounds in the dosage of 100 mg/kg, and after one hour, the mice were taken to a closed room, air in which was substituted with nitrogen gas containing 1.5 % oxygen by ventilating the nitrogen gas for 2 minutes. As sending a mixed gas into the room, the time for death was measured. The increase percent of survival time to the average survival time (8 minutes) of the group, to which the present compounds were not administered, is shown in Table II as life-prolonging rate (2).

As for `S=C(NN=Cc1ccccn1)Nc1cccnc1`, the ILS at 100 mg/kg in test [1] turned out to be 92%; in test [2], 81%.

Turning to `CC(O)CNC(=S)Nc1cccnc1` (stereo not shown), the ILS at 100 mg/kg is 75% in test [1] and 60% in test [2].

`S=C(Nc1cccnc1)NN1CCN(Cc2ccccc2)CC1`: the figures for the ILS at 100 mg/kg in test [1] and in test [2] were 124% and 80%, respectively.

As for `OCCCNC(=S)Nc1cccnc1`, the ILS at 100 mg/kg in test [1] was found to be 115%; in test [2] it was 100%.

Regarding `CN(Cc1ccccc1)NC(=S)Nc1ccncc1`, the ILS at 100 mg/kg amounted to 156% in test [1] and 58% in test [2].

As to `CN(C)NC(=S)Nc1cccnc1`, the ILS at 100 mg/kg in test [1] worked out at 81%; in test [2], 63%.

With `S=C(NCCSCc1ccccc1)Nc1cccnc1`, the ILS at 100 mg/kg in test [1] turned out to be 64%; in test [2], 55%.

`O=C(O)CCCNC(=S)Nc1cccnc1`: the ILS at 100 mg/kg in test [1] was determined as 127%; in test [2], 78%.

For the molecule `CCN(CC)CCNC(=S)Nc1cccnc1`, the ILS at 100 mg/kg in test [1] is 89%; in test [2] it was 40%.

Turning to `CCN(CC)CCNC(=S)Nc1ccccn1`, the ILS at 100 mg/kg in test [1] amounted to 20%; in test [2], 16%.

For the molecule `S=C(NCCSSCCNC(=S)Nc1cccnc1)Nc1cccnc1`, the results for the ILS at 100 mg/kg in test [1] and in test [2] were 30% and 5%, respectively.

Regarding `O=C(O)CCCNC(=S)Nc1ccccn1`, the ILS at 100 mg/kg in test [1] is 72%; in test [2], 53%.

As to `CCN(CC)CCCNC(=S)Nc1cccnc1`, the results for the ILS at 100 mg/kg in test [1] and in test [2] were 28% and 11%, respectively.

With `CN(C)CCCNC(=S)Nc1cccnc1`, the ILS at 100 mg/kg in test [1] amounted to 35%; in test [2], 10%.

Consider `COCCCNC(=S)Nc1cccnc1`, for which the ILS at 100 mg/kg in test [1] worked out at 35%; in test [2], 25%.

On to `CN(C)CCNC(=S)Nc1cccnc1`, for which the ILS at 100 mg/kg in test [1] is 61%; in test [2] it was 46%.

On to `CC(C)(CO)NC(=S)Nc1cccnc1`, for which the ILS at 100 mg/kg was found to be 67% in test [1] and 50% in test [2].

With `S=C(NCCSCc1ccccc1)Nc1ccccn1`, the ILS at 100 mg/kg in test [1] worked out at 86%; in test [2] it was 65%.

Take `OCC(CO)(CO)NC(=S)Nc1cccnc1`: the results for the ILS at 100 mg/kg in test [1] and in test [2] were 61% and 59%, respectively.

Regarding `CN(C)CCCNC(=S)Nc1ccncc1`, the ILS at 100 mg/kg in test [1] is 37%; in test [2], 21%.

Consider `S=C(NN=Cc1cccnc1)Nc1cccnc1`, for which the ILS at 100 mg/kg in test [1] is 135%; in test [2], 114%.

Take `OCCNC(=S)Nc1ccncc1`: the ILS at 100 mg/kg in test [1] was determined as 242%; in test [2], 158%.

On to `S=C(NNc1ccccc1)Nc1cccnc1`, for which the ILS at 100 mg/kg amounted to 125% in test [1] and 108% in test [2].
